The structures appear in SMILES notation. Values after ≈ are worked out from the molar mass of the structure shown. Counter-ions that a name gives are not always drawn.

The test system of series [1] is human COLO 205 solid tumors. Kind of series: in vivo antitumor activity for human COLO 205 solid tumors. Also on record: species or system human tumor in SCID mice. As to the method:
SCID mice (16-18 g, 4-5 weeks old) were obtained from the animal center at the medical center of National Taiwan University, Taipei, R.O.C. and allowed to acclimate to their new environment for one week. The mice were given a sterilized pellet diet and sterilized water ad libitum, and housed under specific pathogene-free conditions in a temperature range between 23°-25° C. and a humidity of about 50±10%. The lighting was automatically operated on a 12 hour light/dark cycle. COLO 205 cells were obtained from ATCC, propagated in culture medium, and subcutaneously inoculated into the dorsal site of the mice.
After solid tumors were grown up to a size of about 1 gram, COLO 205F1 was isolated from the primary culture of the solid tumor and inoculated into the dorsal site of the mice. These tumors were grown to a size of approximately 200 mg (i.e., in a range of 100-300 mg). The mice were sorted according to body weight into groups including five mice. The compounds of Examples 5 and 6 were respectively resuspended in various solvents. The dosage of each compound was intraperitoneally (ip) or intravenously (iv) administered with different schedules. Tumor weights at the beginning of chemotherapy and at weekly intervals thereafter were estimated using two dimensional caliper measurements and calculated with the formula for an ellipsoid. Tumor weight was L X W^2 ×0.5, where L is the major axis and […] is the width of the tumor. The percentage of tumor growth (%TGI) was calculated according to the formula (1-(mean tumor weight of treated group/mean tumor weight of control group))×100. The tumor weights were corrected for tumor weight at the beginning of treatment. Tumor growth inhibition data were analyzed for statistical significance using the pooled variance t test. The tumor weights were monitored until termination of experiment.
Several studies of salt preparations, different formulations, and various administration routes and schedules were performed for the compounds of example 5 or 6 in order to identify their in vivo antitumor activities for human COLO 205 solid tumors. Tumor growth inhibitor studies of the compound of Example 5 were carried out in 1% carboxymethyl-cellulose against human COLO 205 solid tumors in SCID mice by ip administration with a schedule of Q4D×3 or by iv administration with a schedule of (Q1D×5)×2. Tumor growth inhibition studies of the compound at Example 6 were carried out in distilled H2 O against human COLO 205 solid tumor in SCID mice by iv administration with a schedule of (Q2D×3)×2 or in 2.5% cremophor against human COLO 205 solid tumor in SCID mice by iv administration with a schedule of (Q2D×3)×2.

The nature of series [2]: water solubility. The format is physicochemical. The conditions noted are these: Table I.
Series [3] concerns pUC19 plasmid. Kind of series: DNA intercalating assay (DNA band shift). The format is binding. The protocol:
A culture of JM83 bacteria containing a pUC19 plasmid was grown in 500 mL of ampicillin culture medium, and harvested by centrifugation at 4000 rpm for 15 minutes at 4° C. The pellets were lysed by alkali method and the DNA plasmids were collected as the lower band (corresponding to the closed circular DNA) of a centrifuge tube after CsCl-ethidium bromide gradient centrifugation. This collection method is described in, for example, Molecular Cloning: A Laboratory Manual, Cold Spring Harbor Laboratory Press, (1989). After removal of ethidium bromide from the DNA plasmids with 1-butanol saturated with water, the CsCl was removed by dialysis with TE (pH 8.0) buffer.
The pUC19 plasmid (1 μg in each reaction) was incubated with various concentrations of solutions containing different polyamine-linked acridine dimers for 30 minutes at 25° C. in 20 μL reaction mixtures (10 mM Tris-HCl, pH 7.4, 0.1 mM EDTA, and 5 mM NaCl). After reaction, the DNA mixture was run on a 1.0% agarose gel, which was stained with ethidium bromide and destained with distilled water. The shifts of the DNA bands were visualized using UV light and analyzed by photography. The DNA band shifting pattern formed a sigmoidal curve. The 50% shift concentration (SC50) corresponded to a 50% DNA band shift at the particular concentration, according to the curve of the DNA band-shifting photograph.

For `COc1ccc2nc3cc(Cl)ccc3c(NCCCNCCCNc3c4ccc(Cl)cc4nc4ccc(OC)cc34)c2c1` [Example 5], the “in vivo antitumor activity” value was “did not show in vivo antitumor activity” in series [1] (1% carboxymethyl-cellulose, ip, Q4D×3) and “did not show in vivo antitumor activity” in series [1] (1% carboxymethyl-cellulose, iv, (Q1D×5)×2).
With `COc1ccc2nc3cc(Cl)ccc3c(NCCCNCCCNc3c4ccc(Cl)cc4nc4ccc(OC)cc34)c2c1` [Example 6], the “in vivo antitumor activity, dose-response relationship” value in series [1] (2.5% cremophor, iv, (Q2D×3)×2) is “had the dose-response relationship of in vivo antitumor activity”. For the same compound, the “in vivo antitumor activity” value in series [1] (distilled H2O, iv, (Q2D×3)×2) is “demonstrated in vivo antitumor activity”. For the same compound, the concentration in solution in series [2] (solubility) was 8000 µg/mL (≈ 13 mM).
`COc1ccc2nc3cc(Cl)ccc3c(NCCCN(C)CCCNc3c4ccc(Cl)cc4nc4ccc(OC)cc34)c2c1` [Example 12 (acetic acid salt)]: the solubility in series [2] was 10000 µg/mL.
Consider `COc1cccc2c1C(=O)c1c(O)c3c(c(O)c1C2=O)C[C@@](O)(C(=O)CO)C[C@@H]3O[C@H]1C[C@H](N)[C@H](O)[C@H](C)O1` [adriarnycin, reference compound], for which, in series [3] (pUC19 plasmid, 30 minutes, 25° C., pH 7.4, read-out: SC50 (50% shift concentration)), the EC50 was in the range of 10 to 15 µM.
In the case of `O=c1[nH]cc(F)c(=O)[nH]1` [Example 5-Fu, reference compound], the DNA intercalating activity result in series [3] (negative control) is recorded as “did not show DNA intercalating activity”.

By solubility is commonly meant how much of the substance goes into solution per volume. The low end stands for little dissolved substance, the high end for much dissolved substance.

(Values after US5886185A, “Polyamine-linked acridine dimers” (Development Center for Biotechnoloy, priority 1997, dated 1999).)
